Laboratory results: patent US20230331691A1, “TREPROSTINIL DERIVATIVE COMPOUNDS AND METHODS OF USING SAME” (CORSAIR PHARMA, INC., priority 2013, published 2023)

What was measured:
Assay type in all cases: in vitro ADME
[1] = Human liver microsomal stability assay (Test 1); conditions: human liver microsomes, 0.5 uM test compound, 37° C., up to 45 minutes, pH 7.4, NADPH generating system; read-out: Test 1 T½
Method: (§1) (Test 1) Human liver microsomal stability assay was conducted by incubating 0.5 uM test compounds at 37° C. for up to 45 minutes in 50 mM of potassium phosphate buffer (pH 7.4) containing 0.5 mg of microsomal protein and 50 µL of NADPH generating system (7.8 mg of glucose 6-phosphate, 1.7 mg of NADPH and 6 U of glucose 6-phosphate dehydrogenase per mL in 2% w/v of sodium bicarbonate). At 0, 5, 15, 30 and 45 min., an aliquot was taken, quenched with internal standard containing stop solution. No co-factor controls at 45 minutes were also prepared. After incubation, the samples were analyzed by LC-MS/MS. Peak area ratios of analyte to internal standard were used to calculate the intrinsic clearance. The intrinsic clearance (CLint) was determined from the first order elimination constant by non-linear regression. Formation of the active drug Compound A over the time course was also monitored by LC-MS/MS analysis.

[2] = Human plasma stability assay (Test 2); conditions: heparinated human plasma, 0.5 uM test compound, 37° C., up to 120 minutes; read-out: Test 2 T½
Method: (Test 2) Human plasma stability assay was conducted by incubating 0.5 uM test compounds at 37° C. for up to 120 minutes in heparinated human plasma. At 0, 5, 15, 30, 60 and 120 […] min., an aliquot was taken, quenched with internal standard containing stop solution. After incubation, the samples were analyzed by LC-MS/MS. Peak area ratios of analyte to internal standard were used to calculate the half-life. Formation of the active drug Compound A over the time course was also monitored by LC-MS/MS analysis.

[3] = Human skin homogenate stability assay (Test 3); conditions: 0.5 uM test compound, 37° C., up to 45 minutes, pH 7.4, NADPH generating system, read-out: Test 3 T½
Method: as §1, with “3)” for “1)”, “skin homogenate” for “liver microsomal”, “conducted in a similar way as the human liver microsomal stability assay,” for “conducted”, “human skin homogenate” for “microsomal”

Structure (SMILES)	half-life at 0.5 uM [1] [min]	half-life at 0.5 uM [2] [min]	half-life at 0.5 uM [3] [min]
CCCCC[C@H](O)CC[C@@H]1[C@H]2Cc3cccc(OCC(=O)OC)c3C[C@H]2C[C@H]1O [Compound 15, [2-Hydroxy-1-(3-hydroxy-octyl)-2,3,3a,4,9,9a-hexahydro-1H-cyclopenta[b]naphthalen-5-yloxy]-acetic acid methyl ester]	< 15	< 15	< 15
CCCCC[C@H](O)CC[C@@H]1[C@H]2Cc3cccc(OCC(=O)OCC(C)(C)C)c3C[C@H]2C[C@H]1O [Compound 16, [2-Hydroxy-1-(3-hydroxy-octyl)-2,3,3a,4,9,9a-hexahydro-1H-cyclopenta[b]naphthalen-5-yloxy]-acetic acid 2,2-dimethyl-propyl ester]	< 15	15 to 30	15 to 30
CCCCC[C@H](O)CC[C@@H]1[C@H]2Cc3cccc(OCC(=O)OC(C)C(C)C)c3C[C@H]2C[C@H]1O (some centres unmarked) [Compound 17, [2-Hydroxy-1-(3-hydroxy-octyl)-2,3,3a,4,9,9a-hexahydro-1H-cyclopenta[b]naphthalen-5-yloxy]-acetic acid 1,2-dimethyl-propyl ester]	< 15	31 to 60	15 to 30
CCCCC[C@H](O)CC[C@@H]1[C@H]2Cc3cccc(OCC(=O)OC(C)C(C)(C)C)c3C[C@H]2C[C@H]1O (some centres unmarked) [Compound 18, [2-Hydroxy-1-(3-hydroxy-octyl)-2,3,3a,4,9,9a-hexahydro-1H-cyclopenta[b]naphthalen-5-yloxy]-acetic acid 1,2,2-trimethyl-propyl ester]	< 15	> 60	> 60
CCCCC[C@H](O)CC[C@@H]1[C@H]2Cc3cccc(OCC(=O)OC4CC5CCC4C5)c3C[C@H]2C[C@H]1O (some centres unmarked) [Compound 19, [2-Hydroxy-1-(3-hydroxy-octyl)-2,3,3a,4,9,9a-hexahydro-1H-cyclopenta[b]naphthalen-5-yloxy]-acetic acid bicyclo[2.2.1]hept-2-yl ester]	< 15	31 to 60	15 to 30
CCCCC[C@H](O)CC[C@@H]1[C@H]2Cc3cccc(OCC(=O)OC(C)C)c3C[C@H]2C[C@H]1O [Compound 20, [2-Hydroxy-1-(3-hydroxy-octyl)-2,3,3a,4,9,9a-hexahydro-1H-cyclopenta[b]naphthalen-5-yloxy]-acetic acid isopropyl ester]	< 15	31 to 60	< 15
CCCCC[C@H](O)CC[C@@H]1[C@H]2Cc3cccc(OCC(=O)OC)c3C[C@H]2C[C@H]1OC(=O)CCCC [Compound 22, Pentanoic acid 1-(3-hydroxy-octyl)-5-methoxycarbonylmethoxy-2,3,3a,4,9,9a-hexahydro-1H-cyclopenta[b]naphthalen-2-yl ester]	< 15	> 60	> 60
CCCCC[C@H](O)CC[C@@H]1[C@H]2Cc3cccc(OCC(=O)OC)c3C[C@H]2C[C@H]1OC(=O)CC(C)C [Compound 23, 3-Methyl-butyric acid 1-(3-hydroxy-octyl)-5-methoxycarbonylmethoxy-2,3,3a,4,9,9a-hexahydro-1H-cyclopenta[b]naphthalen-2-yl ester]	< 15	> 60	–
CCCCC[C@H](O)CC[C@@H]1[C@H]2Cc3cccc(OCC(=O)OC)c3C[C@H]2C[C@H]1OC(=O)C1CC1 [Compound 24, Cyclopropanecarboxylic acid 1-(3-hydroxy-octyl)-5-methoxycarbonylmethoxy-2,3,3a,4,9,9a-hexahydro-1H-cyclopenta[b]naphthalen-2-yl ester]	< 15	> 60	–
CCCCC[C@H](O)CC[C@@H]1[C@H]2Cc3cccc(OCC(=O)OC)c3C[C@H]2C[C@H]1OC(=O)OCC [Compound 25, [2-Ethoxycarbonyloxy-1-(3-hydroxy-octyl)-2,3,3a,4,9,9a-hexahydro-1H-cyclopenta[b]naphthalen-5-yloxy]-acetic acid methyl ester]	< 15	> 60	31 to 60
CCCCC[C@H](O)CC[C@@H]1[C@H]2Cc3cccc(OCC(=O)OC)c3C[C@H]2C[C@H]1OC(C)=O [Compound 26, [2-Acetoxy-1-(3-hydroxy-octyl)-2,3,3a,4,9,9a-hexahydro-1H-cyclopenta[b]naphthalen-5-yloxy]-acetic acid methyl ester]	< 15	15 to 30	15 to 30
CCCCC[C@H](O)CC[C@@H]1[C@H]2Cc3cccc(OCC(=O)OC)c3C[C@H]2C[C@H]1OC(=O)CCC(=O)OCC [Compound 27, Succinic acid ethyl ester 1-(3-hydroxy-octyl)-5-methoxycarbonylmethoxy-2,3,3a,4,9,9a-hexahydro-1H-cyclopenta[b]naphthalen-2-yl ester]	< 15	> 60	–
CCCCC[C@H](O)CC[C@@H]1[C@H]2Cc3cccc(OCC(=O)OC(C)(C)C)c3C[C@H]2C[C@H]1O [Compound 28, [2-Hydroxy-1-(3-hydroxy-octyl)-2,3,3a,4,9,9a-hexahydro-1H-cyclopenta[b]naphthalen-5-yloxy]-acetic acid tert-butyl ester]	< 15	15 to 30	–
CCCCC[C@H](O)CC[C@@H]1[C@H]2Cc3cccc(OCC(=O)O[C@H](C)CC)c3C[C@H]2C[C@H]1O [Compound 60]	< 15	31 to 60	31 to 60
CCCCC[C@H](O)CC[C@@H]1[C@H]2Cc3cccc(OCC(=O)O[C@@H](C)CC)c3C[C@H]2C[C@H]1O [Compound 61]	< 15	15 to 30	31 to 60
CCCCC[C@H](O)CC[C@@H]1[C@H]2Cc3cccc(OCC(=O)O[C@H](C)C(C)C)c3C[C@H]2C[C@H]1O [Compound 62]	< 15	31 to 60	> 60
CCCCC[C@H](O)CC[C@@H]1[C@H]2Cc3cccc(OCC(=O)O[C@@H](C)C(C)C)c3C[C@H]2C[C@H]1O [Compound 63]	< 15	31 to 60	31 to 60
CCCCCCCCOC(=O)COc1cccc2c1C[C@H]1C[C@@H](O)[C@H](CC[C@@H](O)CCCCC)[C@H]1C2 [Compound 64]	< 15	> 60	> 60
